This is an account of results in patent US8895733B2 (Novartis AG, priority 2010, dated 2014).

The target of the experiment is T1, Nav 1.7 (Homo sapiens, UniProt Q15858).
T1 construct: expressed in transfected cells
The experiment in a line: Whole-cell voltage clamp electrophysiology, automated patch clamp (marker c in Table of Examples). It counts as cell-based. The following applies: read-out: Nav 1.7 activity. The procedure, abridged: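 A voltage protocol weighted toward inactivated-state block was used to test compounds on stably expressing cells, with pulses from −65 mV holding to −10 mV test and −100 mV. Currents came from whole-cell automated patch-clamp recordings, either IonWorks Quattro or other automated instruments, usually in perforated-patch mode.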
(In general: In patch-clamp work, channel activity is measured electrically.)

Setting [1] is: marker c: Automated patch clamp data.
Where [2] appears, read: marker c = Automated patch clamp data.

Like-named read-outs stand apart in the source and are kept apart here.

T1 sequence (Q15858 whole entry): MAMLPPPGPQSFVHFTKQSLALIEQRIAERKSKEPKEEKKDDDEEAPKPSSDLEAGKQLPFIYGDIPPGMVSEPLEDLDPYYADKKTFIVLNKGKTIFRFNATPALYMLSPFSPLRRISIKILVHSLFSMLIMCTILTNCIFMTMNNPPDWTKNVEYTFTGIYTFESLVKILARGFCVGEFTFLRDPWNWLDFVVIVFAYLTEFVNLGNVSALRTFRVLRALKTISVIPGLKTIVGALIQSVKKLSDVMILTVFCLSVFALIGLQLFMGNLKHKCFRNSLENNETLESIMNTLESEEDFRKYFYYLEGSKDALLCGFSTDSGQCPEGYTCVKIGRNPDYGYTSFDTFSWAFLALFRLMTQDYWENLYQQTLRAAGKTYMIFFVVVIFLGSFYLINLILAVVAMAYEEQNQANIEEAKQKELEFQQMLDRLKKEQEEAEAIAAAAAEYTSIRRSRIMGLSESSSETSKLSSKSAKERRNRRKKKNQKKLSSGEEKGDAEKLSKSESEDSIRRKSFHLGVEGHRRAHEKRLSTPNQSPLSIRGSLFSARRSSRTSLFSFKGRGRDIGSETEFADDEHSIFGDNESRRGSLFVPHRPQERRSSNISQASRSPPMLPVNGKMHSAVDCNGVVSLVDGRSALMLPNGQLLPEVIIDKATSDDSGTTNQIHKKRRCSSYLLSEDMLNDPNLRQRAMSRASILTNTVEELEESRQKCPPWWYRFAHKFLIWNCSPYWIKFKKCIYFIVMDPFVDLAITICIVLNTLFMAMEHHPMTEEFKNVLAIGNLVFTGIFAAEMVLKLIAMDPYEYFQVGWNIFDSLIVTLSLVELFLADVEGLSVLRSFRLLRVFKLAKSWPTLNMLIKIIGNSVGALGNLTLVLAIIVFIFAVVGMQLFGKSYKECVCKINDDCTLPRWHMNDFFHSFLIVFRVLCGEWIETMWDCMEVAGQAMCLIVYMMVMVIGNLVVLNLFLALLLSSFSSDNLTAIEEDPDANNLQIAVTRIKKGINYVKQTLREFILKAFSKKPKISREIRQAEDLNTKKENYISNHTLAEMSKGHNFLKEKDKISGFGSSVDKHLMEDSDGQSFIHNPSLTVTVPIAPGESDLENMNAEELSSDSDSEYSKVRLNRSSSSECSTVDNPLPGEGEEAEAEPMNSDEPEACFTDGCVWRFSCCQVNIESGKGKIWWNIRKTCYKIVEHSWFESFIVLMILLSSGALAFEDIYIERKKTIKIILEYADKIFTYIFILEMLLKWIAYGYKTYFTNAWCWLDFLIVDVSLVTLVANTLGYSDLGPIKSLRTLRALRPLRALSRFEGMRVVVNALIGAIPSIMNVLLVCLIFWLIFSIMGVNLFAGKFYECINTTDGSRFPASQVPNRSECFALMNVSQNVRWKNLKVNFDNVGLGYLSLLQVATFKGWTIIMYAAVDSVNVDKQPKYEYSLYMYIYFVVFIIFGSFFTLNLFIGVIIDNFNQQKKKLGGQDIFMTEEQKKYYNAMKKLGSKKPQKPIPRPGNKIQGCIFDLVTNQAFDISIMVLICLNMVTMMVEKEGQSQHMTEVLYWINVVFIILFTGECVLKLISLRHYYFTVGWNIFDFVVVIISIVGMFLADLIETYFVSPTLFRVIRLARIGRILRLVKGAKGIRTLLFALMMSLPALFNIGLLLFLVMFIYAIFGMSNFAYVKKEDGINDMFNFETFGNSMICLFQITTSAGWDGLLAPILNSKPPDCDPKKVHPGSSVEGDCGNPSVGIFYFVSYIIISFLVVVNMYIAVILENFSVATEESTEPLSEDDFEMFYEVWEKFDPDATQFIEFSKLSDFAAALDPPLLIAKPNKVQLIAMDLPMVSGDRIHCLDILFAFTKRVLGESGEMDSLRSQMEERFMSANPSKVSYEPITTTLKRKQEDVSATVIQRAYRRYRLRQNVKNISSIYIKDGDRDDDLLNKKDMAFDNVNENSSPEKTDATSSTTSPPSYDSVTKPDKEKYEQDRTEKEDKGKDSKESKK

Consider `CN(c1ccccc1)c1nc(N)nc(-c2noc(N3CCC(CSCC(F)(F)F)CC3)n2)n1` [Example 175, 2-N-methyl-2-N-phenyl-6-[5-(4-{[(2,2,2-trifluoroethyl)sulfanyl]methyl}piperidin-1-yl)-1,2,4-oxadiazol-3-yl]-1,3,5-triazine-2,4-diamine], for which, under setting [1], the IC50 amounted to 20 nM.

With `CC(=O)c1ccc(-c2nc(-c3nc(N)nc(N(C)c4ccccc4)n3)no2)nc1` [Example 296, 1-[6-(3-{4-amino-6-[methyl(phenyl)amino]-1,3,5-triazin-2-yl}-1,2,4-oxadiazol-5-yl)pyridin-3-yl]ethan-1-one], under setting [2], the IC50 amounted to 274 nM.

For the compound `CN(c1ccccc1)c1nc(N)nc(-c2noc(-c3ccc(C#N)nc3)n2)n1` [Example 78, 5-{3-[4-Amino-6-(methyl-phenyl-amino)-[1,3,5]triazin-2-yl]-[1,2,4]oxadiazol-5-yl}-pyridine-2-carbonitrile], the IC50 under setting [1] is 1660 nM.

Take `CN(c1ccccc1)c1nc(N)nc(-c2noc(-c3ncccc3C(=O)OC3CCCC3)n2)n1` [Example 379, cyclopentyl 2-(3-{4-amino-6-[methyl(phenyl)amino]-1,3,5-triazin-2-yl}-1,2,4-oxadiazol-5-yl)pyridine-3-carboxylate]: the IC50 under setting [2] amounted to 386 nM.

On to `CN(c1ccccc1)c1nc(N)nc(-c2noc(N3CC(COCCC(F)(F)F)C3)n2)n1` [Example 496, 2-N-methyl-2-N-phenyl-6-(5-{3-[(3,3,3-trifluoropropoxy)methyl]azetidin-1-yl}-1,2,4-oxadiazol-3-yl)-1,3,5-triazine-2,4-diamine], for which the IC50 under setting [2] came to 1220 nM.

Take `Nc1nc(Nc2cccc(F)c2)nc(-c2noc(C(=O)NC3COC3)n2)n1` [Example 250, 3-{4-amino-6-[(3-fluorophenyl)amino]-1,3,5-triazin-2-yl}-N-(oxetan-3-yl)-1,2,4-oxadiazole-5-carboxamide]: the IC50 under setting [2] came out at 9850 nM.

Take `CCN(c1ccccc1)c1nc(N)nc(-c2noc(-c3cccs3)n2)n1` [Example 96, N-Ethyl-N-phenyl-6-(5-thiophen-2-yl-[1,2,4]oxadiazol-3-yl)-[1,3,5]triazine-2,4-diamine]: the IC50 under setting [1] was determined as 518 nM.

Regarding `CN(c1ccccc1)c1nc(N)nc(-c2noc(-c3n[nH]cc3Br)n2)n1` [Example 251, 6-[5-(4-bromo-1H-pyrazol-3-yl)-1,2,4-oxadiazol-3-yl]-2-N-methyl-2-N-phenyl-1,3,5-triazine-2,4-diamine], the IC50 under setting [2] stood at 2530 nM.

As for `COC(=O)c1cccc(Nc2nc(N)nc(-c3noc(-c4ccc(OCC(F)(F)F)nc4)n3)n2)c1` [Example 182, methyl 3-[(4-amino-6-{5-[6-(2,2,2-trifluoroethoxy)pyridin-3-yl]-1,2,4-oxadiazol-3-yl}-1,3,5-triazin-2-yl)amino]benzoate], the IC50 under setting [1] stood at 8690 nM.

As for `CCN(c1ccccc1)c1nc(N)nc(-c2noc(-c3ccc(OCC(F)(F)F)nc3)n2)n1` [Example 147, 2-N-ethyl-2-N-phenyl-6-{5-[6-(2,2,2-trifluoroethoxy)pyridin-3-yl]-1,2,4-oxadiazol-3-yl}-1,3,5-triazine-2,4-diamine], under setting [1], the IC50 is 42 nM.

As for `CN(c1ccccc1)c1nc(N)nc(-c2noc(-c3cccnc3C(=O)OC3CCCC3)n2)n1` [Example 380, cyclopentyl 3-(3-{4-amino-6-[methyl(phenyl)amino]-1,3,5-triazin-2-yl}-1,2,4-oxadiazol-5-yl)pyridine-2-carboxylate], the IC50 under setting [2] came to 83 nM.

Consider `CC(CC(F)(F)F)N1CCC(c2nc(-c3nc(N)nc(N(C)c4ccccc4)n3)no2)C1` (stereo not drawn) [Example 205, 2-N-methyl-2-N-phenyl-6-{5-[1-(4,4,4-trifluorobutan-2-yl)pyrrolidin-3-yl]-1,2,4-oxadiazol-3-yl}-1,3,5-triazine-2,4-diamine], for which the IC50 under setting [2] worked out at 1530 nM.

For the compound `CN(c1ccccc1)c1nc(N)nc(-c2noc(C(=O)N3C[C@@H]4[C@@H](COCCC(F)(F)F)[C@@H]4C3)n2)n1` [Example 403, 2-N-methyl-2-N-phenyl-6-(5-{[-6-[(3,3,3-trifluoropropoxy)methyl]-3-azabicyclo[3.1.0]hexan-3-yl]carbonyl}-1,2,4-oxadiazol-3-yl)-1,3,5-triazine-2,4-diamine], the IC50 under setting [2] amounted to 1290 nM.

Turning to `CN(c1ccccc1)c1nc(N)nc(-c2noc(C(=O)N3CCC(CSCC(F)(F)F)CC3)n2)n1` [Example 401, 2-N-Methyl-2-N-phenyl-6-{5-[(4-{[(2,2,2-trifluoroethyl)sulfanyl]methyl}piperidin-1-yl)carbonyl]-1,2,4-oxadiazol-3-yl}-1,3,5-triazine-2,4-diamine], under setting [2], the IC50 was determined as 1040 nM.

As to `CC(C)SC1CCN(c2nc(-c3nc(N)nc(N(C)c4ccccc4)n3)no2)CC1` [Example 367, 2-N-methyl-2-N-phenyl-6-{5-[4-(propan-2-ylsulfanyl)piperidin-1-yl]-1,2,4-oxadiazol-3-yl}-1,3,5-triazine-2,4-diamine], the IC50 under setting [2] came to 2060 nM.

As for `NC(=O)c1nc(-c2nc(N)nc(Nc3cccc(F)c3)n2)no1` [Example 223, 3-{4-amino-6-[(3-fluorophenyl)amino]-1,3,5-triazin-2-yl}-1,2,4-oxadiazole-5-carboxamide], the IC50 under setting [2] is 6500 nM.

For `CN(c1ccccc1)c1nc(N)nc(-c2noc(-c3ccccc3C#N)n2)n1` [Example 80, 2-{3-[4-Amino-6-(methyl-phenyl-amino)-[1,3,5]triazin-2-yl]-[1,2,4]oxadiazol-5-yl}-benzonitrile], the IC50 under setting [1] is 260 nM.

On to `Nc1nc(Nc2ccccc2)nc(-c2noc(C3CCN(S(=O)(=O)C4CC4)CC3)n2)n1` [Example 513, 6-{5-[1-(cyclopropanesulfonyl)piperidin-4-yl]-1,2,4-oxadiazol-3-yl}-2-N-phenyl-1,3,5-triazine-2,4-diamine], for which the IC50 under setting [2] worked out at 631 nM.

As for `COC1CCN(c2nc(-c3nc(N)nc(Nc4cccc(F)c4)n3)no2)CC1` [Example 237, 2-N-(3-fluorophenyl)-6-[5-(4-methoxypiperidin-1-yl)-1,2,4-oxadiazol-3-yl]-1,3,5-triazine-2,4-diamine], the IC50 under setting [2] is 3990 nM.

In the case of `CN(c1ccccc1)c1nc(N)nc(-c2noc(N3CCC(c4ccccc4)CC3)n2)n1` [Example 352, 2-N-methyl-2-N-phenyl-6-[5-(4-phenylpiperidin-1-yl)-1,2,4-oxadiazol-3-yl]-1,3,5-triazine-2,4-diamine], the IC50 under setting [2] turned out to be 1280 nM.

As to `CCN(c1ccccc1)c1nc(N)nc(-c2noc(-c3ccccc3OC(F)(F)F)n2)n1` [Example 198, 2-N-ethyl-2-N-phenyl-6-{5-[2-(trifluoromethoxy)phenyl]-1,2,4-oxadiazol-3-yl}-1,3,5-triazine-2,4-diamine], the IC50 under setting [1] turned out to be 777 nM.

On to `CN(c1ccccc1)c1nc(N)nc(-c2noc(-c3ncc(F)cc3F)n2)n1` [Example 281], for which the IC50 under setting [2] was 1810 nM.

Turning to `CN(c1ccccc1)c1nc(N)nc(-c2noc(N3CC4C(COc5ccccc5)C4C3)n2)n1` (stereo not drawn) [Example 391, 2-N-methyl-6-{5-[6-(phenoxymethyl)-3-azabicyclo[3.1.0]hexan-3-yl]-1,2,4-oxadiazol-3-yl}-2-N-phenyl-1,3,5-triazine-2,4-diamine], the IC50 under setting [2] stood at 539 nM.

With `CN(c1ccccc1)c1nc(N)nc(-c2noc(N3CCC(S(=O)(=O)CC(F)(F)F)CC3)n2)n1` [Example 365, 2-N-methyl-2-N-phenyl-6-(5-{4-[(2,2,2-trifluoroethane)sulfonyl]piperidin-1-yl}-1,2,4-oxadiazol-3-yl)-1,3,5-triazine-2,4-diamine], the IC50 under setting [2] was more than 8460 nM.
